Legend:
Type in all cases: physicochemical
[1] = diffusion coefficient of drug in the reservoir (Dr), release from drug-bearing film into stirred receptor solution; conditions: 30 percent w/w vinyl acetate-acrylate copolymer in 53:11:36 ethyl acetate:toluene:ethanol (Gelva RA-737); timolol free base
Procedure: When a solid reservoir is employed, the diffusion coefficient of the drug in the reservoir, Dr, is determined by first dissolving the drug to be used in a solution of matrix-forming polymer at a concentration below the saturation solubility of the drug in the polymer solution, and then coating the solution and allowing the coating to dry or curing the coating to form a drug bearing film. The coating may be made on a releasable surface so that a free film is employed in the diffusion coefficient determination or may be made on an impermeable backing material in which case the film with backing is employed in making the determination. […] The receptor solution, which is maintained at a constant temperature, preferably 32° C., is sampled at appropriate intervals and quantitative determination of drug concentration made by HPLC (high pressure liquid chromatography) with UV detection or by other suitable means based on the physical-chemical characteristics of the drug. The value for Dr is then determined by a nonlinear regression fit of observed data to either the earlier time or the late time approximation as is appropriate for drug release from a continuous matrix containing only dissolved drug as discussed in Baker et al, "Controlled Release: Mechanisms and Rates" in Advances in Experimental Medicine and Biology, Vol 47, page 41, Eds. Tanquary et al, Plenum Press, N.Y., 1974. […]

[2] = crystallization of dissolved drug in unitary solid reservoir of dissolved and undissolved drug
Source text: Generally, the structure of a transdermal bandage or device consists of (a) a transdermal delivery system comprising an impermeable backing, a drug-containing reservoir, a rate-controlling membrane on the side to be ultimately proximate to the skin of the patient and (b) a means of attaching the system to the dermal surface. In the known systems, the reservoir, the source of supply for the drug, whether a single solid unit, a walled unit or a unit employing drug containing micro-capsules within the reservoir structure, contains the drug partly in particulate form and partly in solution i.e., contains drug in excess of its saturation solubility. During use, the drug in solution migrates to the permeable membrane surface, passes through the membrane and onto the skin for absorption. As the dissolved drug passes through the membrane some of the undissolved drug dissolves and there is, until the supply of undissolved drug is exhausted, a mixture of both dissolved and undissolved drug in the reservoir. The presence of dissolved and undissolved drug is considered necessary to provide for the near zero order rate of delivery, zero order being the rate of delivery which is constant or independent of time. […]

[3] = diffusion coefficient of drug in the membrane (Dm), side-by-side diffusion cell; conditions: 7.5 percent ethylene vinyl acetate copolymer film (PE-75)
Procedure: The diffusion coefficient of drug in the membrane, Dm or Dm', is determined by mounting the membrane between two chambers of a side-by-sidediffusion cell. A determined amount of drug in solution (donor phase) is placed in one chamber and a receptor solvent in the other, into which the drug diffuses and in which it will remain substantially below its saturation solubility (receptor phase). The cells are stirred while maintained in a constant temperature bath, preferably at 32° C. The receptor phase is sampled from time to time and assayed for drug, and steady state flux through the membrane calculated. Km, the partition coefficient between the donor solution and membrane, is determined by equilibrating a known volume of donor solution at 32° C., then assaying the solution for change in drug concentration to determine partitioning between membrane and donor. The diffusion coefficient of the drug in the membrane is calculated from the steady state Fick's law equation, which for semi-permeable membrane is
Initially, Dr was determined for timolol in a commercially available acrylate film-forming material, a 30 percent weight/weight (w/w) vinyl acetate-acrylate copolymer in 53:11:36 ethyl acetate:toluene:ethanol solvent (Gelva® RA-737 multipolymer solution obtained from Monsanto) in the manner previously described. […]

Dr (diffusion coefficient of drug in reservoir) [1]: 1.58×10^-6 cm^2 /hour
Dm (diffusion coefficient of drug in membrane) [3]: 2.85×10^-6 cm^2 /hour
SMILES: CC(C)(C)NC[C@H](O)COc1nsnc1N1CCOCC1 [timolol]
crystallization of dissolved drug after fabrication [2]: the dissolved drug often slowly crystallizes subsequent to fabrication

— US4797284A, “Transdermal drug delivery system” (Merck & Co., Inc., priority 1986, dated 1989)
